What was measured:
[1] = Stability in mouse liver microsomes after 30 mins by LC/MS analysis; format: ADME, Microsome; details: read-out: Stability
[2] = Percentage unbound in 10% human plasma; format: ADME, cell-free
[3] = target: T1, Lysosomal Pro-X carboxypeptidase (Mus musculus, UniProt Q7TMR0); assay: Inhibition of mouse PrCP
T1 sequence (Q7TMR0 whole entry): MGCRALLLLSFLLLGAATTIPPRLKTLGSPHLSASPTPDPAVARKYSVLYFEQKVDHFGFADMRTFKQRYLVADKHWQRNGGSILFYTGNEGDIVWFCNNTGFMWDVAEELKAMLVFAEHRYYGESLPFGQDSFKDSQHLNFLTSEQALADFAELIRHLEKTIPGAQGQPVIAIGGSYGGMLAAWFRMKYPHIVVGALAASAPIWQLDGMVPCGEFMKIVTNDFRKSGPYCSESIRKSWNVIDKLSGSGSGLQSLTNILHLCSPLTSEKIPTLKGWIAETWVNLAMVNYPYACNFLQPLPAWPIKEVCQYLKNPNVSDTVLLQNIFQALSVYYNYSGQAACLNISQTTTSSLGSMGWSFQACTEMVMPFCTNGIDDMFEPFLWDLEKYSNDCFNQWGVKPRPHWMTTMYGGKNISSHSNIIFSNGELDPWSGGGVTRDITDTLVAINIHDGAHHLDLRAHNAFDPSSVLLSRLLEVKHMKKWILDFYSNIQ

[4] = Stability in human liver microsomes after 30 mins by LC/MS analysis; format: ADME, Microsome; details: read-out: Stability
Mus musculus [5] = assay: Ex-vivo inhibition of po dosed mouse PrCP by FRET analysis in absence of plasma; format: functional, organism-based
Mus musculus [6] = assay: Ex-vivo inhibition of po dosed mouse PrCP by FRET analysis in presence of heat inactivated 25% plasma; format: functional, organism-based
[7] = Percentage unbound in 10% mouse plasma; format: ADME, cell-free
Mus musculus [8] = assay: Ex-vivo inhibition of po dosed mouse PrCP by FRET analysis in presence of heat inactivated 100% plasma; format: functional, organism-based
Mus musculus [9] = assay: Ex-vivo inhibition of PrCP in heat inactivated 100% plasma of C57 mouse assessed as target engagement calculated as [cmpd]plasma/([cmpd]plasma + Ki (heat inactivated plasma))x100 at 30 mg/kg, po after 20 hrs by FRET analysis; format: functional; parameters: scale not given: the % may be the effect or the level left
[10] = Ratio of drug uptake in brain to plasma of C57 mouse at 30 mg/kg, po after 20 hrs by LC/MS analysis; format: ADME, organism-based; parameters: dose 30 mg/kg, route oral; details: read-out: BPR
Mus musculus [11] = assay: Dose normalized AUC in mouse at 1 mg/kg, iv and 30 mg/kg, po; format: ADME, organism-based; details: in vivo
[12] = Oral bioavailability in mouse at 30 mg/kg; format: ADME, organism-based; details: in vivo
[13] = Clearance in mouse at 1 mg/kg, iv and 30 mg/kg, po; format: ADME, organism-based; details: in vivo
[14] = Volume of distribution in mouse at 1 mg/kg, iv and 30 mg/kg, po; format: ADME, organism-based; details: in vivo
Mus musculus [15] = assay: Ex-vivo inhibition of PrCP in heat inactivated 100% plasma of C57 mouse assessed as target engagement at 30 mg/kg, po after 20 hrs by FRET analysis; format: functional; parameters: scale not given: the % may be the effect or the level left

SMILES	remaining at 0.5 h [1] [%]	fraction unbound [2]	IC50 [3] [nM]	remaining at 0.5 h [4] [%]	Ki (Mus musculus [5]) [nM]	Ki (Mus musculus [6]) [nM]	fraction unbound [7]	Ki (Mus musculus [8]) [nM]	Activity (Mus musculus [9]) [%]	Kp at 20 h [10]	AUC/dose (Mus musculus [11]) [µM·kg·h/mg]	bioavailability [12] [%]	clearance [13] [mL/min/kg]	Vd [14] [L/kg]	Activity (Mus musculus [15]) [%]
Cc1nc(C2CCN(C(=O)[C@@H]3C[C@@](C)(N)C[C@H]3c3ccc(F)cc3F)CC2)n(-c2cc(Cl)ccc2Cl)n1	79	0.245	4.1	79	3.7	4.7	0.091	8							
Cc1nc(C2CCN(C(=O)[C@@H]3C[C@@](C)(N(C)C)C[C@H]3c3ccc(F)cc3F)CC2)n(-c2ccc(Cl)c(C)c2)n1	47	0.05	2.5	27	2.9	6.3	0.22	16.6							
Cc1cc(C2CCN(C(=O)[C@@H]3C[C@@](C)(N(C)C)C[C@H]3c3ccc(F)cc3F)CC2)n(-c2ccc(F)c(Cl)c2)n1		0.064	0.5		0.6	1.5	0.035	4.5							
Cc1nc(C2CCN(C(=O)[C@@H]3C[C@@](C)(N)C[C@H]3c3ccc(F)cc3F)CC2)n(-c2ccc(F)c(Cl)c2)n1		0.205	11.2		4.6	4.6	0.127	4.6							
Cc1nc(C2CCN(C(=O)[C@@H]3C[C@@](C)(N(C)C)C[C@H]3c3ccc(F)cc3F)CC2)n(-c2ccc(F)c(Cl)c2)n1		0.32			1.1	1.1	0.22	1.1							
Cc1cc(C2CCN(C(=O)[C@@H]3C[C@@](C)(N(C)C)C[C@H]3c3ccc(F)cc3F)CC2)n(-c2cc(Cl)ccc2Cl)n1	33.6	0.087	0.4	12	0.5	0.9	0.013	2.1							
Cc1nc(C2CCN(C(=O)[C@@H]3C[C@H](N(C)C)C[C@H]3c3ccc(F)cc3F)CC2)n(-c2ccc(Cl)c(C)c2)n1			65												
Cc1nc(C2CCN(C(=O)[C@@H]3C[C@](C)(N)C[C@H]3c3ccc(F)cc3F)CC2)n(-c2ccc(F)c(Cl)c2)n1	93		47.8	91											
Cc1nc(C2CCN(C(=O)[C@@H]3C[C@@H](N(C)C)C[C@H]3c3ccc(F)cc3F)CC2)n(-c2ccc(Cl)c(C)c2)n1		0.22	41				0.32								
Cc1cc(C2CCN(C(=O)[C@@H]3CN(C(C)(C)C)C[C@H]3c3ccc(F)cc3F)CC2)n(-c2cc(Cl)ccc2Cl)n1									99.8	1.35	0.19	31	48	13	97.7
C[C@@]1(N)C[C@@H](C(=O)N2CCC(c3ncnn3-c3ccc(F)c(Cl)c3)CC2)[C@H](c2ccc(F)cc2F)C1		0.21	16				0.15								
